Test results from US20080003305A1, “PROCESS AND COMPOSITIONS FOR THE DISINFECTION OF WATERS” (BROMINE COMPOUNDS LIMITED, priority 1991, published 2008).

How the values were obtained:
[1] = tested on: MOs in starch sizing mixture; experiment: Efficacy of oxidizing and non-oxidizing biocides in a starch sizing mixture (paper industry); assay type: cell-based; conditions: 30 ppm active ingredient, 60° C.; for Surviving MOs after time (hours): 4: 4 hours; for Surviving MOs after time (hours): 28: 28 hours; for Surviving MOs after time (hours): 48: 48 hours; for Surviving MOs after time (hours): 72: 72 hours
Procedure: Efficacy of Oxidizing and Non-Oxidizing Biocides is a Starch Sizing Mixture (Paper Industry)
Efficacy was measured at 60° C.
NH4Br+NaOCl: stock concentration 0.1%.
Dosage: 30 ppm active ingredient.
Incubation temperature 60° C.

Pseudomonas sp. = experiment: Efficacy in buffer at pH-7.5 against Pseudomonas sp.; assay type: cell-based; conditions: buffer pH 7.5, 1 ppm as Cl2
Procedure: Efficacy in Buffer at pH-7.5 against Pseudomonas sp.
Chlorine demand: 0.1 ppm out of 1 ppm within 20 minutes
NH4Br+NaOCl: stock concentration: 1000 ppm as Cl2
Preparation of stock solution: NH4Br was dissolved in de-ionized water (2761 ppm). NaOCl (2000 ppm as Cl2) was quickly added dropwise to the ammonium bromide solution while stirring the mixture. The stock solution was used immediately.

[2] = Residue as Cl2 in domestic waste containing a high concentration of amines; assay type: physicochemical; conditions: 60 ppm
Procedure: (§1) Efficacy of a Series of Biocides in Domestic Waste Containing a High Concentration of Amines
(§2) Incubation temperature: 27° C.
(§3) Stock concentration: 0.2%

[3] = tested on: fouling of size press filters; experiment: Field experiment, starch sizing mixture (paper mill); conditions: NaOCl (10% as Cl2) fed every 8 hours, 30 liters per portion
Procedure: • Paper mill, starch sizing • Contained volume: 20 m^3 • Flow rate: 8.33 m^3/h. (6% starch in H2O), • pH about 8.0 • Temperature: 50° C.-70° C.
Sizing mixture is recirculated in a size press through a filter (80 microns). Circulation rate: 6 m^3/h. The sizing mixture had been previously treated with NaOCl (10% as Cl2), which was fed every 8 hours (30 liters per portion).
Use of NaOCl was replaced by the use of a mixture of NH4Br+NaOCl (stock concentration 0.5% as Cl2).

Fecal coli = experiment: Efficacy of oxidizing biocides in domestic waste: fecal coli; assay type: cell-based; conditions: 20 ppm as Cl2; contact time 10 minutes
Procedure: (§4) Efficacy of Oxidizing Biocides in Domestic Waste
(§5) Non-treated domestic waste roughly filtered; contact time: 10 minutes.
(§6) Stock concentration: 0.5% as Cl2.

[4] = Residue as Cl2 in water from a citrus juice evaporator; assay type: physicochemical; conditions: 30 ppm as Cl2
Procedure: (§7) Kinetics of Kill of Various Mixtures of Ammonium Salts Mixed with NaOCl in Water from a Citrus Juice Evaporator
(§8) Demand: Higher than 30 ppm out of 30 ppm of Cl2 during 10 minutes.
(§9) Stock concentration of NH4X+NaOCl: 0.1% as Cl2

total count [5] = experiment: Efficacy of oxidizing biocides in domestic waste: total count; assay type: cell-based; conditions: 20 ppm as Cl2; contact time 10 minutes
Procedure: as §4, §5, §6

total anaerobic MOs = experiment: Kinetics of kill in water from a citrus juice evaporator: total anaerobic; assay type: cell-based; conditions: 30 ppm as Cl2
Procedure: as §7, §8, §9

aerob. MOs = experiment: Efficacy in domestic waste containing a high concentration of amines: aerobic MOs; assay type: cell-based; conditions: 60 ppm; contact time 10 minutes; N as NH3 50mg/l; pH 6.10
Procedure: as §1, §2, §3

anaer. MOs = experiment: Efficacy in domestic waste containing a high concentration of amines: anaerobic MOs; assay type: cell-based; conditions: 60 ppm; contact time 10 minutes; N as NH3 50mg/l; pH 6.10
Procedure: as §1, §2, §3

total aerobic MOs = experiment: Kinetics of kill in water from a citrus juice evaporator: total aerobic; assay type: cell-based; conditions: 30 ppm as Cl2
Procedure: as §7, §8, §9

total count [6] = experiment: Dependence of efficacy of NH4Br+NaOCl on the concentration of stock solution, industrial waste water; assay type: cell-based; conditions: no pre-mixed stock, 4 ppm as Cl2
Procedure: Dependence of Efficacy of Mixtures of NH4Br+NaOCl on the Concentrations of Stock Solution
Work was carried out in industrial waste water.
Stock concentrates were prepared in buffer at pH 7.00.
Biocidal dose: 4 ppm as Cl2.

bacillus mycoides = experiment: Efficacy of ammonium bromide at various pHs; assay type: cell-based; conditions: 2 ppm as Cl2
Procedure: Efficacy of Ammonium Bromide at Various pHs
Examined MO: bacillus mycoides
NH4Br+NaOCl: molar ratio 1:1; stock concentration: 0.5%;
NH4Br+NaOCl was either pre-mixed or added in situ to the buffer.
Demand: 1.8 ppm out of 2 ppm of Cl2 within 60 minutes.

[7] = tested on: total aerobic viable counts; experiment: Efficacy of oxidizing biocides in water taken from a paper mill (thick stock of pulp slurry); assay type: cell-based; conditions: 15 mg/l as Cl2
Procedure: Efficacy of Oxidizing Biocides in Water Taken from a Paper Mill (Thick Stock of Pulp Slurry)
Microorganisms were incubated at 37° C. (total aerobic viable counts).
Concentration of stock solution: 0.1% as Cl2.

total count [8] = experiment: Pre-mixing versus in situ addition of ammonium salts and NaOCl, water from a corn-processing plant; assay type: cell-based; conditions: 12 ppm, stock formed in water
Procedure: Pre-Mixing Versus in Situ Addition of Ammonium Salts and NaOCl
Water from a corn-processing plant; high demand for Cl2,
NH4Cl+NaOCl: stock concentration: 1%
NH4Br+NaOCl: stock concentration: 0.5%
Stock solutions were formed at pH 14.0; 7.0, 4.0 and in water.
For in situ addition: both NH4X and NaOCl were dissolved at the appropriate pH.

[9] = Residue as Cl2 in domestic waste; assay type: physicochemical; conditions: 20 ppm as Cl2, contact time 10 minutes
Procedure: as §4, §5, §6

Structure (SMILES): Cn1sccc1=O [MIT]
- Surviving MOs after time (hours): 4 [1]: 2 × 10^4 cfu/ml
- Surviving MOs after time (hours): 28 [1]: 2 × 10^3 cfu/ml
- Surviving MOs after time (hours): 48 [1]: 2 × 10^3 cfu/ml
- Surviving MOs after time (hours): 72 [1]: 1 × 10^3 cfu/ml

Structure (SMILES): [Na+].[O-]Cl [NaOCl, sodium hypochlorite]
- Survivors after time (minutes): 1 (Pseudomonas sp.; 1 minute): 4 × 10^6 cfu/ml
- Survivors after time (minutes): 5 (Pseudomonas sp.; 5 minutes): 1 × 10^5 cfu/ml
- Survivors after time (minutes): 10 (Pseudomonas sp.; 10 minutes): 4 × 10^2 cfu/ml
- Survivors after time (minutes): 20 (Pseudomonas sp.; 20 minutes): 0 cfu/ml
- Residue free as Cl2 after 10 minutes ([2]; free): 0.2
- Residue (total) as Cl2 after 10 minutes ([2]; total): 1.5
- Surviving MOs after time (hours): 4 [1]: 4 × 10^3 cfu/ml
- Surviving MOs after time (hours): 28 [1]: 2 × 10^6 cfu/ml
- Surviving MOs after time (hours): 48 [1]: 3 × 10^6 cfu/ml
- Surviving MOs after time (hours): 72 [1]: 3 × 10^6 cfu/ml
- frequency of filter washing [3]: filters had to be washed once every two hours
- Fecal coli (Fecal coli): 5 × 10^5 cfu/ml
- residue as Cl2 free after time (minutes): 10 ([4]; free, 10 minutes): 0 (0)
- residue as Cl2 free after time (minutes): 20 ([4]; free, 20 minutes): 0 (0)
- residue as Cl2 free after time (minutes): 60 ([4]; free, 60 minutes): 0 (0)
- residue as Cl2 (total) after time (minutes): 10 ([4]; total, 10 minutes): 0 (0)
- residue as Cl2 (total) after time (minutes): 20 ([4]; total, 20 minutes): 0 (0)
- residue as Cl2 (total) after time (minutes): 60 ([4]; total, 60 minutes): 0 (0)
- total count (total count [5]): 6 × 10^6 cfu/ml
- Surviving MOs after time (minutes); (total anaerobic): 10 (total anaerobic MOs; 10 minutes): 8 × 10^4 cfu/ml
- Surviving MOs after time (minutes); (total anaerobic): 20 (total anaerobic MOs; 20 minutes): 3 × 10^6 cfu/ml
- Surviving MOs after 10 minutes aerob. (aerob. MOs): 9 × 10^2 cfu/ml
- Surviving MOs after 10 minutes anaer. (anaer. MOs): 3 × 10^3 cfu/ml
- Surviving MOs after time (minutes); total aerobic: 10 (total aerobic MOs; 10 minutes): 2 × 10^5 cfu/ml
- Surviving MOs after time (minutes); total aerobic: 20 (total aerobic MOs; 20 minutes): 2 × 10^7 cfu/ml
- Surviving MOs after time (minutes); total aerobic: 60 (total aerobic MOs; 60 minutes): 1 × 10^7 cfu/ml
- Survivors total count after time (minutes): 10 (total count [6]; 10 minutes): 9 × 10^5 cfu/ml
- Survivors total count after time (minutes): 180 (total count [6]; 180 minutes): 7 × 10^5 cfu/ml
- Survivors pH-7.0 60 m (bacillus mycoides; pH 7.0, 60 m): 1 × 10^5 cfu/ml
- Survivors pH-7.0 180 m (bacillus mycoides; pH 7.0, 180 m): 1 × 10^5 cfu/ml
- Survivors pH-7.0 24 h (bacillus mycoides; pH 7.0, 24 h): 1 × 10^5 cfu/ml
- Survivors pH-8.0 60 m (bacillus mycoides; pH 8.0, 60 m): 3 × 10^5 cfu/ml
- Survivors pH-8.0 180 m (bacillus mycoides; pH 8.0, 180 m): 1 × 10^5 cfu/ml
- Survivors pH-8.0 24 h (bacillus mycoides; pH 8.0, 24 h): 1 × 10^5 cfu/ml
- Survivors pH-9.0 60 m (bacillus mycoides; pH 9.0, 60 m): 1 × 10^5 cfu/ml
- Survivors pH-9.0 180 m (bacillus mycoides; pH 9.0, 180 m): 1 × 10^5 cfu/ml
- Survivors pH-9.0 24 h (bacillus mycoides; pH 9.0, 24 h): 1 × 10^5 cfu/ml
- Viable counts after time (minutes): 30 ([7]; 30 minutes): 6 × 10^3 cfu/ml
- Viable counts after time (minutes): 70 ([7]; 70 minutes): 2 × 10^3 cfu/ml
- Viable counts after time: 25 hours ([7]; 25 hours): 1 × 10^5 cfu/ml
- Survivors (total count) H2O, 60 minutes (total count [8]; 60 minutes): 2 × 10^6 cfu/ml
- Survivors (total count) H2O, 180 minutes (total count [8]; 180 minutes): 2 × 10^6 cfu/ml
- residue as Cl2 free ([9]; free): 0 (0) ppm
- residue as Cl2 (total) ([9]; total): 0 (0) ppm
